The results in this text go back to US7994140B2, “Classes of compounds that interact with GPCRs” (Alchemia Limited, priority 2002, dated 2011).

One assay deals with T1, MC4 (Homo sapiens, UniProt P32245).
T1 construct: purchased Perkin Elmer BioSignal; host or cells: HEK 293
Nature of the assay: GPCR radioligand binding (RLB) assay, melanocortin MC4, [125I]NDP-αMSH. The method, boiled down: (§1)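 Membranes from HEK 293 cells expressing the recombinant human receptor were equilibrated with [125I]SST-14 (SST5) or [125I]NDP-αMSH (MC4), then compound added for an optimized incubation. Bound ligand separated by filtration on PEI-coated glass fiber and counted by liquid scintillation.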

The target in a further assay is T2, SST5 (Homo sapiens, UniProt P35346).
T2 construct: purchased Perkin Elmer BioSignal; host or cells: HEK 293
T2 sequence (P35346 whole entry): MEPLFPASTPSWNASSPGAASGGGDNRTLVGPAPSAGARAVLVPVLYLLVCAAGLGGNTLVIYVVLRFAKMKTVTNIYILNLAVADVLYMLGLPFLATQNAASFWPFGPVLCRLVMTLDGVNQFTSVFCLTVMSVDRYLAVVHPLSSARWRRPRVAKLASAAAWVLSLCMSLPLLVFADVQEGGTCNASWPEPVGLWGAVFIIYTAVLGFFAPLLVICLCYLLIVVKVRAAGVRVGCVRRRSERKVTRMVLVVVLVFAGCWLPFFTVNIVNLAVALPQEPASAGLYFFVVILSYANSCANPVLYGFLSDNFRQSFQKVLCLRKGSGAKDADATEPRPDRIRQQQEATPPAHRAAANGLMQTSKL
Nature of the assay: GPCR radioligand binding (RLB) assay, somatostatin SST5, [125I]SST-14. Particulars: for SST5 inhibition at 10 micromolar: 10 micromolar compound, recombinant human receptor membranes (HEK 293); for SSTS inhibition at 10 micromolar: Example Library 4. The method, boiled down: as §1

Where [1] appears, read: 10 micromolar compound, recombinant human receptor membranes (HEK 293).
[2] abbreviates: 10 micromolar, Example Library 4.

T1 sequence (P32245 whole entry): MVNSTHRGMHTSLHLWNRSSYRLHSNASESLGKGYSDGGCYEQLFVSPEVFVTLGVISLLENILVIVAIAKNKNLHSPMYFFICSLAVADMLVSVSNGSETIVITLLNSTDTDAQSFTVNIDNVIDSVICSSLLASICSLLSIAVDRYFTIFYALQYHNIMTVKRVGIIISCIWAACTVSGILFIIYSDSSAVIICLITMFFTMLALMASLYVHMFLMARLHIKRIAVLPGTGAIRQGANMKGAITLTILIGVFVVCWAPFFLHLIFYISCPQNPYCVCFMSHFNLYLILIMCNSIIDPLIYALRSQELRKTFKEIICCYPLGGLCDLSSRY

`CSC1OC(COCc2ccc(Cl)cc2)C(O)C(OCc2ccc3ccccc3c2)C1NC(=O)CN` (centres unmarked) [Compound 197]: at MC4 (setting [1]), the “MC4 inhibition at 10 micromolar” value is “+ (Indicates inhibition greater than . . . 50%)”. Moreover, the “SST5 inhibition at 10 micromolar” value on SST5 is listed as “+ (Indicates inhibition greater than . . . 50%)”.

In the case of `CSC1OC(COCc2ccc(Cl)cc2)C(O)C(OCc2ccc3ccccc3c2)C1NC(=O)CNC(=N)N` (centres unmarked) [Compound 198], the “MC4 inhibition at 10 micromolar” value on MC4 (setting [1]) is “+ (Indicates inhibition greater than . . . 50%)”. Moreover, the “SST5 inhibition at 10 micromolar” value on SST5 is given as “+ (Indicates inhibition greater than . . . 50%)”.

Consider `CSC1OC(COCc2ccc(Cl)cc2)C(O)C(OCc2ccc3ccccc3c2)C1NC(=O)CCN` (centres unmarked) [Compound 199], for which the “MC4 inhibition at 10 micromolar” value on MC4 (setting [1]) is listed as “+ (Indicates inhibition greater than . . . 50%)”. Moreover, the “SST5 inhibition at 10 micromolar” value at SST5 is reported as “+ (Indicates inhibition greater than . . . 50%)”.

Consider `CSC1OC(COCc2ccc(Cl)cc2)C(O)C(OCc2ccc3ccccc3c2)C1NC(=O)CCNC(=N)N` (centres unmarked) [Compound 200], for which the “MC4 inhibition at 10 micromolar” value on MC4 (setting [1]) is “+ (Indicates inhibition greater than . . . 50%)”. Besides, the “SST5 inhibition at 10 micromolar” value at SST5 is given as “+ (Indicates inhibition greater than . . . 50%)”.

With `CSC1OC(COCc2ccc(Cl)cc2)C(O)C(OCc2ccc3ccccc3c2)C1NC(=O)CCCN` (centres unmarked) [Compound 201], the “MC4 inhibition at 10 micromolar” value at MC4 (setting [1]) was “+ (Indicates inhibition greater than . . . 50%)”. For the same compound, the “SST5 inhibition at 10 micromolar” value at SST5 is “+ (Indicates inhibition greater than . . . 50%)”.

Regarding `CSC1OC(COCc2ccc(Cl)cc2)C(O)C(OCc2ccc3ccccc3c2)C1NC(=O)CCCNC(=N)N` (centres unmarked) [Compound 202], the “MC4 inhibition at 10 micromolar” value on MC4 (setting [1]) is given as “+ (Indicates inhibition greater than . . . 50%)”. The “SST5 inhibition at 10 micromolar” value at SST5 is listed as “+ (Indicates inhibition greater than . . . 50%)”.

On to `CSC1OC(COCc2ccc(-c3ccccc3)cc2)C(O)C(OCc2ccc3ccccc3c2)C1NC(=O)CN` (centres unmarked) [Compound 203], for which the “MC4 inhibition at 10 micromolar” value on MC4 (setting [1]) is listed as “+ (Indicates inhibition greater than . . . 50%)”. In addition, the “SST5 inhibition at 10 micromolar” value on SST5 is recorded as “+ (Indicates inhibition greater than . . . 50%)”.

As to `CSC1OC(COCc2ccc(-c3ccccc3)cc2)C(O)C(OCc2ccc3ccccc3c2)C1NC(=O)CNC(=N)N` (centres unmarked) [Compound 204], at MC4 (setting [1]), the “MC4 inhibition at 10 micromolar” value is “+ (Indicates inhibition greater than . . . 50%)”. On SST5, the “SST5 inhibition at 10 micromolar” value is “+ (Indicates inhibition greater than . . . 50%)”.

Take `CSC1OC(COCc2ccc(-c3ccccc3)cc2)C(O)C(OCc2ccc3ccccc3c2)C1NC(=O)CCN` (centres unmarked) [Compound 205]: the “MC4 inhibition at 10 micromolar” value at MC4 (setting [1]) is listed as “+ (Indicates inhibition greater than . . . 50%)”. In addition, on SST5, the “SST5 inhibition at 10 micromolar” value is listed as “+ (Indicates inhibition greater than . . . 50%)”.

For `CSC1OC(COCc2ccc(-c3ccccc3)cc2)C(O)C(OCc2ccc3ccccc3c2)C1NC(=O)CCNC(=N)N` (centres unmarked) [Compound 206], the “MC4 inhibition at 10 micromolar” value at MC4 (setting [1]) is given as “+ (Indicates inhibition greater than . . . 50%)”. The “SST5 inhibition at 10 micromolar” value on SST5 was “+ (Indicates inhibition greater than . . . 50%)”.

As to `CSC1OC(COCc2ccc(-c3ccccc3)cc2)C(O)C(OCc2ccc3ccccc3c2)C1NC(=O)CCCN` (centres unmarked) [Compound 207], the “MC4 inhibition at 10 micromolar” value on MC4 (setting [1]) was “+ (Indicates inhibition greater than . . . 50%)”. The “SST5 inhibition at 10 micromolar” value at SST5 is recorded as “+ (Indicates inhibition greater than . . . 50%)”.

For `CSC1OC(COCc2ccc(-c3ccccc3)cc2)C(O)C(OCc2ccc3ccccc3c2)C1NC(=O)CCCNC(=N)N` (centres unmarked) [Compound 208], the “MC4 inhibition at 10 micromolar” value on MC4 (setting [1]) is listed as “+ (Indicates inhibition greater than . . . 50%)”. Also, on SST5, the “SST5 inhibition at 10 micromolar” value is reported as “+ (Indicates inhibition greater than . . . 50%)”.

Take `CSC1OC(COCc2ccc3ccccc3c2)C(O)C(OCc2ccc3ccccc3c2)C1NC(=O)CN` (centres unmarked) [Compound 209]: the “MC4 inhibition at 10 micromolar” value at MC4 (setting [1]) is listed as “+ (Indicates inhibition greater than . . . 50%)”. Also, the “SST5 inhibition at 10 micromolar” value at SST5 was “+ (Indicates inhibition greater than . . . 50%)”.

In the case of `CSC1OC(COCc2ccc3ccccc3c2)C(O)C(OCc2ccc3ccccc3c2)C1NC(=O)CNC(=N)N` (centres unmarked) [Compound 210], the “MC4 inhibition at 10 micromolar” value on MC4 (setting [1]) is on record as “+ (Indicates inhibition greater than . . . 50%)”. Besides, the “SST5 inhibition at 10 micromolar” value on SST5 is given as “+ (Indicates inhibition greater than . . . 50%)”.

With `CSC1OC(COCc2ccc3ccccc3c2)C(O)C(OCc2ccc3ccccc3c2)C1NC(=O)CCN` (centres unmarked) [Compound 211], on MC4 (setting [1]), the “MC4 inhibition at 10 micromolar” value is given as “+ (Indicates inhibition greater than . . . 50%)”. For the same compound, the “SST5 inhibition at 10 micromolar” value at SST5 is “+ (Indicates inhibition greater than . . . 50%)”.

Regarding `CSC1OC(COCc2ccc3ccccc3c2)C(O)C(OCc2ccc3ccccc3c2)C1NC(=O)CCNC(=N)N` (centres unmarked) [Compound 212], the “MC4 inhibition at 10 micromolar” value at MC4 (setting [1]) was “+ (Indicates inhibition greater than . . . 50%)”. At SST5, the “SST5 inhibition at 10 micromolar” value is “+ (Indicates inhibition greater than . . . 50%)”.

As to `COCC1OC(OCc2ccccc2)C(NC(=O)CNC(=N)N)C(OCc2ccccc2)C1O` (centres unmarked) [Compound 214], the “MC4 inhibition at 10 micromolar” value on MC4 (setting [2]) is “+ (Indicates inhibition greater than . . . 50%)”. For the same compound, at SST5, the “SSTS inhibition at 10 micromolar” value is listed as “+ (Indicates inhibition greater than . . . 50%)”.

With `COCC1OC(OCc2ccccc2)C(NC(=O)CCNC(=N)N)C(OCc2ccccc2)C1O` (centres unmarked) [Compound 216], the “MC4 inhibition at 10 micromolar” value at MC4 (setting [2]) was “+ (Indicates inhibition greater than . . . 50%)”. The “SSTS inhibition at 10 micromolar” value on SST5 is “+ (Indicates inhibition greater than . . . 50%)”.

Take `COCC1OC(OCc2ccccc2)C(NC(=O)CCCNC(=N)N)C(OCc2ccccc2)C1O` (centres unmarked) [Compound 218]: the “MC4 inhibition at 10 micromolar” value on MC4 (setting [2]) is on record as “+ (Indicates inhibition greater than . . . 50%)”. The “SSTS inhibition at 10 micromolar” value at SST5 is reported as “+ (Indicates inhibition greater than . . . 50%)”.

On to `COCC1OC(OCc2ccccc2)C(NC(=O)CN)C(OCc2ccc(Cl)cc2)C1O` (centres unmarked) [Compound 219], for which the “MC4 inhibition at 10 micromolar” value at MC4 (setting [2]) is given as “+ (Indicates inhibition greater than . . . 50%)”. Further, at SST5, the “SSTS inhibition at 10 micromolar” value is reported as “+ (Indicates inhibition greater than . . . 50%)”.

As for `COCC1OC(OCc2ccccc2)C(NC(=O)CNC(=N)N)C(OCc2ccc(Cl)cc2)C1O` (centres unmarked) [Compound 220], on MC4 (setting [2]), the “MC4 inhibition at 10 micromolar” value was “+ (Indicates inhibition greater than . . . 50%)”. Further, the “SSTS inhibition at 10 micromolar” value on SST5 is on record as “+ (Indicates inhibition greater than . . . 50%)”.

`COCC1OC(OCc2ccccc2)C(NC(=O)CCN)C(OCc2ccc(Cl)cc2)C1O` (centres unmarked) [Compound 221]: the “MC4 inhibition at 10 micromolar” value at MC4 (setting [2]) is listed as “+ (Indicates inhibition greater than . . . 50%)”. Besides, the “SSTS inhibition at 10 micromolar” value on SST5 is on record as “+ (Indicates inhibition greater than . . . 50%)”.

Consider `COCC1OC(OCc2ccccc2)C(NC(=O)CCNC(=N)N)C(OCc2ccc(Cl)cc2)C1O` (centres unmarked) [Compound 222], for which the “MC4 inhibition at 10 micromolar” value at MC4 (setting [2]) is recorded as “+ (Indicates inhibition greater than . . . 50%)”. Besides, the “SSTS inhibition at 10 micromolar” value at SST5 is on record as “+ (Indicates inhibition greater than . . . 50%)”.

`COCC1OC(OCc2ccccc2)C(NC(=O)CCCN)C(OCc2ccc(Cl)cc2)C1O` (centres unmarked) [Compound 223]: the “MC4 inhibition at 10 micromolar” value on MC4 (setting [2]) is reported as “+ (Indicates inhibition greater than . . . 50%)”. Besides, the “SSTS inhibition at 10 micromolar” value on SST5 is given as “+ (Indicates inhibition greater than . . . 50%)”.

In the case of `COCC1OC(OCc2ccccc2)C(NC(=O)CCCNC(=N)N)C(OCc2ccc(Cl)cc2)C1O` (centres unmarked) [Compound 224], the “MC4 inhibition at 10 micromolar” value on MC4 (setting [2]) is “+ (Indicates inhibition greater than . . . 50%)”. Also, the “SSTS inhibition at 10 micromolar” value on SST5 is “+ (Indicates inhibition greater than . . . 50%)”.
